Experimental data from ChEMBL document CHEMBL5291721, “A preclinical secondary pharmacology resource illuminates target-adverse drug reaction associations of marketed drugs” (Nat Commun, 2023).

Columns and labels:
Mu-type opioid receptor [1] = biological target: T1, Mu-type opioid receptor (Homo sapiens, UniProt P35372); assay: biochemical; type: functional
Cannabinoid receptor 1 [2] = biological target: T2, Cannabinoid receptor 1 (Homo sapiens, UniProt P21554); type: functional, cell-based
[3] = biological target: T3, 5-hydroxytryptamine receptor 2B (Homo sapiens, UniProt P41595)
[4] = biological target: Voltage-dependent L-type calcium channel subunit alpha-1C (Rattus norvegicus, UniProt P22002); type: functional
[5] = biological target: Glutamate receptor ionotropic, NMDA 1 (Rattus norvegicus, UniProt P35439)
[6] = biological target: T4, Gamma-aminobutyric acid receptor subunit alpha-1 (Rattus norvegicus, UniProt P62813); type: functional
[7] = biological target: T5, 5-hydroxytryptamine receptor 1A (Homo sapiens, UniProt P08908); type: functional, cell-based
T5 sequence (P08908 whole entry): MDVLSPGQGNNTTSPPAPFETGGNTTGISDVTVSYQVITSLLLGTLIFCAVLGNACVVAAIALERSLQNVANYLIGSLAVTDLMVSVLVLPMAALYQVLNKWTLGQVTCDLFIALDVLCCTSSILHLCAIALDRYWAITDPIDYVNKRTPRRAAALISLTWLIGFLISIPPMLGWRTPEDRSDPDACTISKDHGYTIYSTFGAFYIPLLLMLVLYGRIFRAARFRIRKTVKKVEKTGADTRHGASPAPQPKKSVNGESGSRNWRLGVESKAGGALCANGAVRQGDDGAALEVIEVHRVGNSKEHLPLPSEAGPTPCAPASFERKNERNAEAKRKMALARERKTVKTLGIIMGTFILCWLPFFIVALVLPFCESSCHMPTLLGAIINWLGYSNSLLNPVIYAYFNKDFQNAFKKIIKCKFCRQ

[8] = biological target: T6, Alpha-1A adrenergic receptor (Homo sapiens, UniProt P35348)
T6 sequence (P35348 whole entry): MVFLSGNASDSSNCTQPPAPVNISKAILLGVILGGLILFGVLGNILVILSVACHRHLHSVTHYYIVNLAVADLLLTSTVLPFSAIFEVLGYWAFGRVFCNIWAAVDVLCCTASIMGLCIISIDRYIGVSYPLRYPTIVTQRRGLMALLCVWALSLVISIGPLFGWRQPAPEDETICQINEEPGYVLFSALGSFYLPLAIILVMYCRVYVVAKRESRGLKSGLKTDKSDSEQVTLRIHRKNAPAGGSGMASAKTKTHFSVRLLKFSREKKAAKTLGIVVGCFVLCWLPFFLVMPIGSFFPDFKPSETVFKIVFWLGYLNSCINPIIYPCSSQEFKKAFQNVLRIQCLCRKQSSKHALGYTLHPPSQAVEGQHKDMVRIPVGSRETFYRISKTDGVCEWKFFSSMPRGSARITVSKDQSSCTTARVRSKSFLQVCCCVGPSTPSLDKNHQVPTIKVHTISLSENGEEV

[9] = biological target: Delta-type opioid receptor (Homo sapiens, UniProt P41143)
Histamine H2 receptor = Histamine H2 receptor (Homo sapiens, UniProt P25021); type: functional, cell-based
[10] = biological target: T5, 5-hydroxytryptamine receptor 1A; type: functional, cell-based; remark: listed apart in the source
Mu-type opioid receptor [11] = biological target: T1, Mu-type opioid receptor
[12] = biological target: T3, 5-hydroxytryptamine receptor 2B; type: functional, cell-based
[13] = biological target: T6, Alpha-1A adrenergic receptor; type: functional, cell-based
Cannabinoid receptor 1 [14] = biological target: T2, Cannabinoid receptor 1
[15] = biological target: T7, Beta-2 adrenergic receptor (Homo sapiens, UniProt P07550); type: functional, cell-based
[16] = biological target: Gamma-aminobutyric acid receptor subunit alpha-1/alpha-2/beta-2/gamma-2 (Homo sapiens, UniProt P14867+P18507+P47869+P47870); type: functional, cell-based
[17] = biological target: T6, Alpha-1A adrenergic receptor; type: functional, cell-based; remark: listed apart in the source
Histamine H3 receptor = Histamine H3 receptor (Homo sapiens, UniProt Q9Y5N1)
D(1A) dopamine receptor [18] = biological target: T8, D(1A) dopamine receptor (Homo sapiens, UniProt P21728); type: functional, cell-based
D(1A) dopamine receptor [19] = biological target: T8, D(1A) dopamine receptor; type: functional, cell-based; remark: listed apart in the source
[20] = biological target: T3, 5-hydroxytryptamine receptor 2B; type: functional, cell-based; remark: listed apart in the source
[21] = biological target: T9, Amine oxidase [flavin-containing] A (Homo sapiens, UniProt P21397); type: functional
T9 sequence (P21397 whole entry): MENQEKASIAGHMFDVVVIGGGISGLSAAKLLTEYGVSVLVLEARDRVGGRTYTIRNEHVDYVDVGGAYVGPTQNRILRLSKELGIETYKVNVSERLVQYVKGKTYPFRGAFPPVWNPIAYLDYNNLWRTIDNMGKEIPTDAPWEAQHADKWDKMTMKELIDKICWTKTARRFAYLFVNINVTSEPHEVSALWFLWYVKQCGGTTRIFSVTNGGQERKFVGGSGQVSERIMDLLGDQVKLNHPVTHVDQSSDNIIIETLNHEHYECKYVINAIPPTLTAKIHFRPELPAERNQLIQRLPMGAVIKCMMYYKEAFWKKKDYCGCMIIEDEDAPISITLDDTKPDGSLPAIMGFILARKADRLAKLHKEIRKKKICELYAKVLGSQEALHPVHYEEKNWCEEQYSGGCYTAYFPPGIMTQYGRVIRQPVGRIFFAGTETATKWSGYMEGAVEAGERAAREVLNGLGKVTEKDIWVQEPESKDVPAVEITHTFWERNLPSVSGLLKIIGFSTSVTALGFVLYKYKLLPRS

[22] = biological target: Kappa-type opioid receptor (Homo sapiens, UniProt P41145)
D(3) dopamine receptor = D(3) dopamine receptor (Homo sapiens, UniProt P35462)
[23] = biological target: T10, 5-hydroxytryptamine receptor 2C (Homo sapiens, UniProt P28335)
T10 sequence (P28335 whole entry): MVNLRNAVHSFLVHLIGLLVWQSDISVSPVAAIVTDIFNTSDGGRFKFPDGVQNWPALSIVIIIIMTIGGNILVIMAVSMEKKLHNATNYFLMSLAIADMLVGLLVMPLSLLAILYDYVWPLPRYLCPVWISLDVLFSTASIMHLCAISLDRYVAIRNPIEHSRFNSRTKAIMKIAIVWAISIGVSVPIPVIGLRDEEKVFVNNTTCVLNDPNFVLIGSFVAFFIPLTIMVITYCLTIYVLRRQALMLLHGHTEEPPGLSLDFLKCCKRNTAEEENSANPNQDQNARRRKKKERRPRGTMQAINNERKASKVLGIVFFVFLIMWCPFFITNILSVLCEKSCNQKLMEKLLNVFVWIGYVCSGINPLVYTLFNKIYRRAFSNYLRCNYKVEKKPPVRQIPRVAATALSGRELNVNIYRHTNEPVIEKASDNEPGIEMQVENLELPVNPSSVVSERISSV

[24] = biological target: T7, Beta-2 adrenergic receptor
[25] = biological target: T4, Gamma-aminobutyric acid receptor subunit alpha-1
[26] = biological target: Neuronal acetylcholine receptor subunit alpha-4 (Homo sapiens, UniProt P43681)
Note: assay procedure not described here.

T3 sequence (P41595 whole entry): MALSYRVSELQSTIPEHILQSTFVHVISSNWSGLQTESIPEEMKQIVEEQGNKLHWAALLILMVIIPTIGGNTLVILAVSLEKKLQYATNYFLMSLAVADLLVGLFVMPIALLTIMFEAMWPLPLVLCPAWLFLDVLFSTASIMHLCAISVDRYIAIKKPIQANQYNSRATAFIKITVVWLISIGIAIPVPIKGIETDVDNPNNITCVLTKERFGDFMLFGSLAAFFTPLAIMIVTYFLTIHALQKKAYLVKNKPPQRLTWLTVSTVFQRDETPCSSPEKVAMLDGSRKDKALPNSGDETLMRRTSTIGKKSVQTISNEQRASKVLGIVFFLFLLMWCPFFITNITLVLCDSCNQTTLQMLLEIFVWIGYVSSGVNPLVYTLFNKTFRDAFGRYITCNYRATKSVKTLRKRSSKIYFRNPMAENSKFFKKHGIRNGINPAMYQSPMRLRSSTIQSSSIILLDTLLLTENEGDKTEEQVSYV
T4 sequence (P62813 whole entry): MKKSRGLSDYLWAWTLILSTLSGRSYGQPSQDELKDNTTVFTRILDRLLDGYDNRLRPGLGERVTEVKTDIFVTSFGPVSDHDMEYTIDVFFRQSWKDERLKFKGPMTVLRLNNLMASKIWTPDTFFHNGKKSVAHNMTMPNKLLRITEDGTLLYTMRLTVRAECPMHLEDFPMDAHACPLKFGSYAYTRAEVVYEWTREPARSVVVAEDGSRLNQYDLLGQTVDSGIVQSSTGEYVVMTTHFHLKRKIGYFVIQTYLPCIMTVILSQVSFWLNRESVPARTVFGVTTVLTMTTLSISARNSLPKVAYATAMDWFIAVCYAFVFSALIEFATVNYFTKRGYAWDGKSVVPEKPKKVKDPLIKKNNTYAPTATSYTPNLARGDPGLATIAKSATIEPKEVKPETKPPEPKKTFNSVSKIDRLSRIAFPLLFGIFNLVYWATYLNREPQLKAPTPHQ
T1 sequence (P35372 whole entry): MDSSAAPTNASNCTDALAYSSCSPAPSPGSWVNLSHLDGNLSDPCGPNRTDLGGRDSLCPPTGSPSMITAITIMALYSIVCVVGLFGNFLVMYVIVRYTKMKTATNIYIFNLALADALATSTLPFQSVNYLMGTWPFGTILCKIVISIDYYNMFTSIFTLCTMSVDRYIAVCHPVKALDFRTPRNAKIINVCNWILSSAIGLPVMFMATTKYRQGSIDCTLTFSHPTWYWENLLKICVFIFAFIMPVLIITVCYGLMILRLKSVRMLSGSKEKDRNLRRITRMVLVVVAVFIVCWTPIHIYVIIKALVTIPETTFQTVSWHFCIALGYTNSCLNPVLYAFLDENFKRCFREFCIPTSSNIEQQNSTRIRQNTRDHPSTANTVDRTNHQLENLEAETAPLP
T2 sequence (P21554 whole entry): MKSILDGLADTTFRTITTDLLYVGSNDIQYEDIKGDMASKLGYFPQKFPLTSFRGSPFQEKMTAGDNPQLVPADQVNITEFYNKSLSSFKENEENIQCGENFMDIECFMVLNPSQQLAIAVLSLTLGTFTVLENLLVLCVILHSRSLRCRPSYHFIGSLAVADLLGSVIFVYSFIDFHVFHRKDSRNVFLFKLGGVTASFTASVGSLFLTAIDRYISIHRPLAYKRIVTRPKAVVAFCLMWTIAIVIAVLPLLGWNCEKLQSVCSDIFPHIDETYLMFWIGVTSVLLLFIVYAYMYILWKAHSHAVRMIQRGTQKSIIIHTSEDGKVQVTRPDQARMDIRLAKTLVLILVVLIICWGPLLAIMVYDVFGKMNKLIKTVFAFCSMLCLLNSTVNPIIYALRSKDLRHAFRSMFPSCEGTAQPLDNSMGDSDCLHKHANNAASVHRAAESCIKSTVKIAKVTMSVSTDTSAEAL
T7 sequence (P07550 whole entry): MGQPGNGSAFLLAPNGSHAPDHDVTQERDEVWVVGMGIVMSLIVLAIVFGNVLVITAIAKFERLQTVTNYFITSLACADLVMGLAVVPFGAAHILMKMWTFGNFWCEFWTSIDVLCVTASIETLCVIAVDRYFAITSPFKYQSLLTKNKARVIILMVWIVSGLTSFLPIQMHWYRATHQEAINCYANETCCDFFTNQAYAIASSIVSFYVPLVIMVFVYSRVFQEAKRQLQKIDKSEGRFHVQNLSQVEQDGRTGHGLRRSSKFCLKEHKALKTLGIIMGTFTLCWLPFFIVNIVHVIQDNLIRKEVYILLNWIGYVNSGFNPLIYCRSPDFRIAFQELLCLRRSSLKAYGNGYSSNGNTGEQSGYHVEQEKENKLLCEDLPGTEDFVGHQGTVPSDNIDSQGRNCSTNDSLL
T8 sequence (P21728 whole entry): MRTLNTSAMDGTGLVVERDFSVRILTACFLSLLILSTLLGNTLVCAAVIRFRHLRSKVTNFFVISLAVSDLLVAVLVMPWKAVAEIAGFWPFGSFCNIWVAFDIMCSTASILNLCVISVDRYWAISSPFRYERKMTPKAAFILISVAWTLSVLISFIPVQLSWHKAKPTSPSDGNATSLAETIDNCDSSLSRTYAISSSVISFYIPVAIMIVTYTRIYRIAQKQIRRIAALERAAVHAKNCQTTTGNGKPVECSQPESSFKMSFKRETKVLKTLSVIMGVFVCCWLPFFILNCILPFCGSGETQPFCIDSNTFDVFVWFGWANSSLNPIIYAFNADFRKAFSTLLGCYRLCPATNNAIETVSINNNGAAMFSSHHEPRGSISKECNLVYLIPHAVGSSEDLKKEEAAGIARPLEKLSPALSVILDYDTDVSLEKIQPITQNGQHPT
Chain of Neuronal acetylcholine receptor subunit alpha-4 (P43681 whole entry): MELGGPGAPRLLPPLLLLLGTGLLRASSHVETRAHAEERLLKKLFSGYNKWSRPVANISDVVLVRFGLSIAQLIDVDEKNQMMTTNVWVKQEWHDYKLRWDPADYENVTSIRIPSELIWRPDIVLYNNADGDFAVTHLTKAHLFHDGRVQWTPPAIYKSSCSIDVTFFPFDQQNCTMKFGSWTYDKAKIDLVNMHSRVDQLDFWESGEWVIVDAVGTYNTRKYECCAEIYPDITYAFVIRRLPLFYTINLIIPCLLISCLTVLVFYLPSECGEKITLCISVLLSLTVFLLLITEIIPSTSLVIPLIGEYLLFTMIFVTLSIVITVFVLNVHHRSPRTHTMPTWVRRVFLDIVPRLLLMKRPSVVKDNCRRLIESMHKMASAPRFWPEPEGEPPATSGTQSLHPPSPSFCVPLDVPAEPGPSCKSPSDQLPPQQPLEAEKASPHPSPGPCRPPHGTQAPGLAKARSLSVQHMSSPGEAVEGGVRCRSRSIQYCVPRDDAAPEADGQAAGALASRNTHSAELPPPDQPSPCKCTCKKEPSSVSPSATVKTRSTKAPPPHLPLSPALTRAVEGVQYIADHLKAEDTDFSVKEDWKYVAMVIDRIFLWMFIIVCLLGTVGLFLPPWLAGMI
Chain of Histamine H3 receptor (Q9Y5N1 whole entry): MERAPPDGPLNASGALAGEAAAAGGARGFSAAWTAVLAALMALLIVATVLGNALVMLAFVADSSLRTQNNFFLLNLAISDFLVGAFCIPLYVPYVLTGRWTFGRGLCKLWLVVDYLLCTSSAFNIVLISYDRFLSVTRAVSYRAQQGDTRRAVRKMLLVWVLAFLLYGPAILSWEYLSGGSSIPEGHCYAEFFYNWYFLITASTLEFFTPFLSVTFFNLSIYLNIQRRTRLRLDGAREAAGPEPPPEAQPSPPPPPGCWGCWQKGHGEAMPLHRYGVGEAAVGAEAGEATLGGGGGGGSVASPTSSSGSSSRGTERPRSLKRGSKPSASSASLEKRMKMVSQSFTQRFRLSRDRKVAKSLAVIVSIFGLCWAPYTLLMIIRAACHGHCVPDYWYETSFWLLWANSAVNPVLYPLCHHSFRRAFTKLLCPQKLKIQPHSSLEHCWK
Chain of Histamine H2 receptor (P25021 whole entry): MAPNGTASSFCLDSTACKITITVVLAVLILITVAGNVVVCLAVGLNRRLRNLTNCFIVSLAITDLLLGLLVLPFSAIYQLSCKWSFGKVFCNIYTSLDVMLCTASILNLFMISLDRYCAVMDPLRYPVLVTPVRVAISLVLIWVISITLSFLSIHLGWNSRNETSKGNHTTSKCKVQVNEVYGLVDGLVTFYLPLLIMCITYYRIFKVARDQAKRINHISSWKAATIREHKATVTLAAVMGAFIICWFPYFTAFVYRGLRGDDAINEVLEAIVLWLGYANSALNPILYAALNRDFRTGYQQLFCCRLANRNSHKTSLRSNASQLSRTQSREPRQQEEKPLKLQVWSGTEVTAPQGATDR
Chain of D(3) dopamine receptor (P35462 whole entry): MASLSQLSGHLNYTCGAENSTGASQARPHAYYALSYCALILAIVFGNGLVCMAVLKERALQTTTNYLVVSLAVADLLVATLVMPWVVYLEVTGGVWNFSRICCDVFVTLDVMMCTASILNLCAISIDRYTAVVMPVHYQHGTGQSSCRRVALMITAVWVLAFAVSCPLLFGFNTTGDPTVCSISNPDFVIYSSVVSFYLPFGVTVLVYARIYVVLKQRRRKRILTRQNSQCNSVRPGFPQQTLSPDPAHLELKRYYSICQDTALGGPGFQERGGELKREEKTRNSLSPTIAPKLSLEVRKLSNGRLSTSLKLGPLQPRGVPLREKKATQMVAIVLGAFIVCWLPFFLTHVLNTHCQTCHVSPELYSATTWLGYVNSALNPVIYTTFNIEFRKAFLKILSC
Chain of Delta-type opioid receptor (P41143 whole entry): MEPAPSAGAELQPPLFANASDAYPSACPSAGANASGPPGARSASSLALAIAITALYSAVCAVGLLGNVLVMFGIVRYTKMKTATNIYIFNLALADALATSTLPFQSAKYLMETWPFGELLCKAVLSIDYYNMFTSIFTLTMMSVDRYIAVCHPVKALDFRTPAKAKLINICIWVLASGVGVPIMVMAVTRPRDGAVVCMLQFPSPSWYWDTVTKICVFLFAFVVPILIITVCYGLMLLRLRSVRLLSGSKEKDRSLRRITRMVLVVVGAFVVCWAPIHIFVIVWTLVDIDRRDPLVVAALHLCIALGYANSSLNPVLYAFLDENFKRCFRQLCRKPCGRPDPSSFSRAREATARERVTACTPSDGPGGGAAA

## CN1[C@@H]2CC[C@H]1C[C@@H](OC(c1ccccc1)c1ccccc1)C2 [BENZTROPINE]
Mu-type opioid receptor [1]
  AC50: 5.3 µM
Cannabinoid receptor 1 [2]
  AC50: > 30 µM
[3]
  AC50: 0.137 µM
[4]
  AC50: > 10 µM
[5]
  AC50: > 10 µM
[6]
  AC50: > 30 µM
[7]
  AC50: > 30 µM
[8]
  AC50: 0.078 µM
[9]
  AC50: 11 µM
Histamine H2 receptor
  AC50: > 30 µM
[10]
  AC50: > 30 µM
Mu-type opioid receptor [11]
  AC50: 6.26 µM
[12]
  AC50: 2.6 µM
[13]
  AC50: > 30 µM
Cannabinoid receptor 1 [14]
  AC50: > 10 µM
[15]
  AC50: > 30 µM
[16]
  AC50: > 30 µM
[17]
  AC50: 0.96 µM
Histamine H3 receptor
  AC50: > 30 µM
D(1A) dopamine receptor [18]
  AC50: 21 µM
D(1A) dopamine receptor [19]
  AC50: > 30 µM
[20]
  AC50: > 30 µM
[21]
  AC50: > 30 µM
[22]
  AC50: 0.993 µM
D(3) dopamine receptor
  AC50: 2.83 µM
[23]
  AC50: 12.4 µM
[24]
  AC50: > 30 µM
[25]
  AC50: > 10 µM
[26]
  AC50: > 30 µM
